One test concerns 143B cells. The experiment in a line: Proliferation rate of 143B cells with added single nucleoside/base. Conditions: Homo sapiens, read-out: Added nucleoside/base concentration that slows proliferation by half. The format is cell-based. The method, then: (§1) This effect was dose-titratable over a 0.1 mM to 2.0 mM range, with increasing concentrations of multiple single nucleotides completely preventing cell proliferation.
(§2) In Table 1, the approximate concentration of each nucleotide that when added slows the proliferation of the indicated cells by half is shown.
(§3) All adherent and human leukemia cell lines were cultured in DMEM or RPMI supplemented with 10% heat inactivated fetal bovine serum at 37° C. with 5% CO2. The Lys-GFP-ER-HoxA9 63.3 cells were cultured in RPMI supplemented with 10% fetal bovine serum, stem cell factor, and beta-estradiol as described previously (Sykes et al., (2016), Cell. 167(1): 171-186.e15). All cell lines regularly tested negative for mycoplasma.
(§4) To assess proliferation, the number of cells seeded for each cell line allowed for exponential growth over the course of the assay. To assess effects of nucleotide treatment, cells were washed three times with PBS and 4 mL of treatment media was added one day after plating cells. The following formula was used to calculate proliferation rate:
(§5) Doublings per day=[Log2(Final day 4 cell count/Initial day 0 cell count)]/4 days

The test system of test [1] is A549 cells. The test is described as follows: Proliferation rate of A549 cells with added single nucleoside/base. Conditions: for IC50: Homo sapiens. Type of test: cell-based, human. Here is the method: as §1, §2, §3, §4, §5
The subject of the next test is A2780 cells. The test is described as follows: Proliferation rate of A2780 cells with added single nucleoside/base. Conditions: Homo sapiens. Type of test: cell-based. The method, then: as §1, §2, §3, §4, §5
For another test, the system named is MDA-MB-468 cells. The test is described as follows: Proliferation rate of MDA-MB-468 cells with added single nucleoside/base. Type of test: cell-based. The settings on record: Homo sapiens. Here is the method:
as §1, §2, §3, §4, §5

The subject of another test is U2OS cells. The test is described as follows: Proliferation rate of U2OS cells with added single nucleoside/base. The format is cell-based. The settings on record: Homo sapiens, read-out: Added nucleoside/base concentration that slows proliferation by half. Here is the method: as §1, §2, §3, §4, §5
Another test concerns H1299 cells. The test is described as follows: Proliferation rate of H1299 cells with added single nucleoside/base. The format is cell-based. The settings on record: Homo sapiens. Here is the method:
as §1, §2, §3, §4, §5

In the next test the test system is Chk1 and Chk2. The test is described as follows: Replication stress signaling: phosphorylation of ATR/ATM targets Chk1 and Chk2. The format is cell-based. Conditions: stronger signaling at higher concentrations. The source says:
To determine if nucleotide imbalance causes replication stress in a cancer cell, targets of the ATR and ATM kinases were examined after the addition of a nucleotide to change the internal nucleotide ratio. The ATR and ATM kinases are components of the cellular response to DNA damage, and sense single-stranded DNA and DNA double-strand breaks, respectively. The respective targets of ATR and ATM, Chk1 and Chk2, are major effectors of the DNA damage response. […] The appearance of p-Chk1 occurred first between 12 hours and 24 hours of guanine treatment, followed by the appearance of p-Chk2 between 48 hours and 72 hours. Induction of the replication stress response was reversed by addition of adenine together with guanine. A similar induction of ATR and ATM signaling occurred with any excess nucleotide supplementation that impaired S phase progression, but not with leucine deprivation, consistent with impaired DNA replication. Inhibiting total purine or pyrimidine synthesis induced phosphorylation of Chk1 and Chk2 but to a lesser extent than Guanosine treatment.

A short description of test [2]: Comet tail assay of DNA damage. Type of test: cell-based. The settings on record: 24 hours; small fraction of treated cells. The text has this: The cancer cell is contacted with that amount of purine, purine precursor, purine analog, pyrimidine, pyrimidine precursor, and/or pyrimidine which, once entering the cell, changes the cell's internal baseline purine:pyrimidine ratio and induces replication stress in the cell. The induction of replication stress can be measured, in any way known in the art, e.g., with the Comet assay which measures DNA damage. In this assay, cells are mixed in low melting point agarose on a microscope slide and are lysed with a detergent, e.g., 1% N-lauryl sarcosine, 0.5% Triton X-100, DMSO, and high salt, e.g., 2.5 M NaCl, 0.1 M EDTA and 10 mM Tris, to form nucleoids containing supercoiled loops of DNA that are linked to the nuclear matrix. After electrophoresis at high pH structures can be observed resembling comets, visualized by fluorescence microscopy. The intensity of the comet tail relative to the head is proportional to the number of breaks in the DNA. Comets can be scored with dedicated software such as, but not limited to, CaspLab software or OpenComet software.

Test [3] has as its system A549 cells. The test is described as follows: LCMS analysis of intracellular nucleotide levels in A549 cells. The format is cell-based, human. Here is the method: Where indicated, cells were incubated in media with 4 mM ^15N-amide-glutamine and/or 200 μM ^13C-guanine or ^13C-adenine for 24 hours prior to LCMS Analysis of metabolites. For assessment of metabolites, cells were washed three times with PBS prior to extracting polar metabolites from cells: plates were placed on ice, cells were washed with ice-cold blood bank saline, and 500 μl of ice-cold 80% methanol in water with 250 nM ^13C/^15N labeled amino acid standards (MSK-A2-1.2: Cambridge Isotope Laboratories, Inc.) was added to each well. Cells were scraped, each sample was vortexed for 10 minutes at 4° C., and then centrifuged at maximum speed for 10 minutes at 4° C. Samples were dried under nitrogen gas and resuspended in 25 μl of a 50/50 acetonitrile/water mixture. Metabolites were measured using a Dionex UltiMate 3000 ultra-high performance liquid chromatography system connected to a Q Exactive benchtop Orbitrap mass spectrometer, equipped with an Ion Max source and a HESI II probe (Thermo Fisher Scientific). […]
Metabolites were monitored in full-scan, polarity-switching, mode. […] Relative quantitation of metabolites was performed with XCalibur QuanBrowser 2.2 (Thermo Fisher Scientific) using a 5 ppm mass tolerance and referencing an in-house retention time library of chemical standards. […]

The next test relates to U937 cells. The experiment in a line: Differentiation of U937 cells by flow cytometry. Conditions: 10^-3 to 10^-7 M, FIG. 4C. Type of test: cell-based, human. Here is the method: (§6) That exogenous nucleotides can direct cancer cells to undergo differentiation was determined as follows. Thymidine was added at concentrations ranging from 10^−3 to 10^−7 M to 63.3 cells (FIG. 4A), THP1 cells (FIG. 4B) and U937 cells (FIG. 4C). Cell differentiation was monitored by CD11b+/CD16+ expression, and by CD11b+ total expression.
as §3
(§7) The Lys-GFP-ER-HoxA9 cells or human leukemia cell lines were grown in round-bottom tissue-culture treated plates. Following a 4-day incubation with nucleotides, cells were incubated with antibodies, washed, incubated with FACS buffer containing DAPI, and analyzed by flow cytometry. Viability was assessed by forward and side scatter as well as by DAPI exclusion. For the Lys-GFP-ER-HoxA9 63.3 cells, differentiation was assessed by GFP and staining with an anti-CD11b-APC antibody (final concentration of 1:400; Clone M1/70, Biolegend). […]

Another test has as its system THP1 cells. The experiment in a line: Differentiation of THP1 cells by flow cytometry. Conditions: 10^-3 to 10^-7 M, FIG. 4B. The format is cell-based, human. Here is the method:
as §6, §3, §7

The subject of another test is 63.3 cells. The experiment in a line: Differentiation of Lys-GFP-ER-HoxA9 63.3 cells by flow cytometry. Type of test: cell-based. The settings on record: 10^-3 to 10^-7 M, FIG. 4A. Here is the method:
as §6, §3, §7
In general terms: Flow cytometry measures light scatter and fluorescence of single cells or particles in a stream.

[4] abbreviates: 143B cells, approximate concentration.
[5] abbreviates: A549 cells, approximate concentration, read-out: Added nucleoside/base concentration that slows proliferation by half.
[6] abbreviates: A2780 cells, approximate concentration, read-out: Added nucleoside/base concentration that slows proliferation by half.
[7] abbreviates: MDA-MB-468 cells, approximate concentration, read-out: Added nucleoside/base concentration that slows proliferation by half.
Where [8] appears, read: U2OS cells, approximate concentration.
The mark [9] stands for this setting: NCI-H1299, H1299 cells, approximate concentration, read-out: Added nucleoside/base concentration that slows proliferation by half.

Where two headings read alike, the source gives them in different places.

Consider `Nc1ncnc2c1ncn2[C@H]1C[C@H](O)[C@@H](CO)O1` [dA, deoxyadenosine], for which the IC50 with 143B cells (setting [4]) came to 600 µM; in the test on A549 cells [1] (setting [5]) it was 1200 µM; in the test with A2780 cells (setting [6]), 300 µM; with MDA-MB-468 cells (setting [7]), 225 µM; in the test with U2OS cells (setting [8]) it was 600 µM; with H1299 cells (setting [9]), 800 µM.
With `Nc1ncnc2c1ncn2[C@@H]1O[C@H](CO)[C@@H](O)[C@H]1O` [A, adenosine], the IC50 in the test with 143B cells (setting [4]) came out at 1000 µM; with A549 cells [1] (setting [5]), 2100 µM; in the test with A2780 cells (setting [6]), 1000 µM; with MDA-MB-468 cells (setting [7]), 800 µM; with U2OS cells (setting [8]), 950 µM; with H1299 cells (setting [9]), 1100 µM.
With `Nc1ccn([C@H]2C[C@H](O)[C@@H](CO)O2)c(=O)n1` [Deoxycytidine], in the test on A549 cells [1] (A549 cells, FIG. 1B, higher concentrations), the Effect on proliferation entry is “blocked proliferation”.
Consider `Nc1nc2nc[nH]c2c(=O)[nH]1` [G, guanine], for which the “Phosphorylation of Chk1 and Chk2 (replication stress response)” value with Chk1 and Chk2 is on record as “robust phosphorylation”. Also, the IC50 in the test on 143B cells (143B) turned out to be 120 µM; in the test with A549 cells [1] (A549, read-out: Added nucleoside/base concentration that slows proliferation by half) it was 80 µM; with A2780 cells (A2780, read-out: Added nucleoside/base concentration that slows proliferation by half) it was 100 µM; in the test on MDA-MB-468 cells (MDA-MB-468, read-out: Added nucleoside/base concentration that slows proliferation by half) it was 150 µM; in the test with U2OS cells (U2OS) it was 250 µM; with H1299 cells (NCI-H1299, read-out: Added nucleoside/base concentration that slows proliferation by half) it was 200 µM. Also, the “DNA damage by comet tail assay” value in test [2] is reported as “minor increases in DNA damage”. Besides, in the test with A549 cells [3] (FIGS. 2A and 3A-3B), the “Intracellular pools of guanylate nucleotides (GTP/GDP/GMP)” value was “dramatically increased”. For the same compound, in the test with A549 cells [3] (FIGS. 2B and 3C-3D), the “Intracellular levels of adenylate nucleotides (ATP/ADP/AMP)” value is “decreased”.
Turning to `Cc1cn([C@H]2C[C@H](O)[C@@H](CO)O2)c(=O)[nH]c1=O` [T, thymidine], the IC50 in the test on A549 cells [1] (setting [5]) was found to be 500 µM; in the test with A2780 cells (setting [6]), 300 µM; in the test on MDA-MB-468 cells (setting [7]) it was 150 µM; with U2OS cells (setting [8]), 500 µM; in the test with H1299 cells (setting [9]), 700 µM. Also, the “Cell differentiation (CD11b+/CD16+ and CD11b+ total expression)” value in the test with U937 cells and with THP1 cells was “induced cell differentiation in a concentration dependent manner” in each case. Moreover, the “Cell differentiation (CD11b+ markers)” value in the test with 63.3 cells is “induced cell differentiation in a concentration dependent manner”.

(Values after patent publication US20220249534A1, “METHOD OF TREATING CANCER WITH NUCLEOTIDE THERAPEUTICS” (Massachusetts Institute of Technology, priority 2021, published 2022).)
